# Target: T1, TLR9 (Homo sapiens, UniProt Q9NR96)
# T1 construct: Fresh blood was collected from normal human donors; endogenous in cells; host or cells: human PBMCs from fresh donor blood
# T1 sequence (Q9NR96 26-1032): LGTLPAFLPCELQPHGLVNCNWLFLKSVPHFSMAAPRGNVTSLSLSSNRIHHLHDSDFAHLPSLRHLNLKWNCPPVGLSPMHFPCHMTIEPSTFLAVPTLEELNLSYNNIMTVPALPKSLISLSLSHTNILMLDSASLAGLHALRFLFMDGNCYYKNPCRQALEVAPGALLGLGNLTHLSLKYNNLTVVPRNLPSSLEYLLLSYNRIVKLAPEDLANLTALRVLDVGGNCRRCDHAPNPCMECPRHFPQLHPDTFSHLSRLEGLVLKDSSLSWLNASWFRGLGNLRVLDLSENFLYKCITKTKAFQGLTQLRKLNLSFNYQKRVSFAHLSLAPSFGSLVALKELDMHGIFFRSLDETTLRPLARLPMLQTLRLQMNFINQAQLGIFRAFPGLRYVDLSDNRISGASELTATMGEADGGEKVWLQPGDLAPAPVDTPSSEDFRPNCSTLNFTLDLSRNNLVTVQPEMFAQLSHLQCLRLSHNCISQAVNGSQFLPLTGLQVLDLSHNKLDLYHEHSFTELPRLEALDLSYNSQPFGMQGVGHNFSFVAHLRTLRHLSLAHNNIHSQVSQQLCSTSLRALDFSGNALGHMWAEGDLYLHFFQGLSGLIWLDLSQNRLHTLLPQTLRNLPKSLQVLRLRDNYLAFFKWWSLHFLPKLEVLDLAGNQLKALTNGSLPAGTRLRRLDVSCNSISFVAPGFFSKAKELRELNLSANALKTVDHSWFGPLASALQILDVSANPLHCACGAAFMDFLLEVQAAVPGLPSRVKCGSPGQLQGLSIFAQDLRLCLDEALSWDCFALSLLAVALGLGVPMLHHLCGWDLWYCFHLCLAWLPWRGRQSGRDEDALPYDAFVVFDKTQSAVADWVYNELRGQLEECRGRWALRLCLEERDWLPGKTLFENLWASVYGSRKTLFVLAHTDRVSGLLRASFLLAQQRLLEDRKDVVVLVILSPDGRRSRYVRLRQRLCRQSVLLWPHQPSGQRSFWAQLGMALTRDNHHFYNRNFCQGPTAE
# Assay: huPBMC TLR9 Antagonist IFNα Assay
# Format: cell-based
# Settings: human PBMCs stimulated with ODN2216 0.3 μM, 14-16 hrs; IFNα2b AlphaLISA read-out
# Description: Compounds were generally serially diluted (1/3) in DMSO and plated on sterile 384 well tissue culture plates and stored until ready for use. Each ten-point dilution was typically plated in triplicate in parallel rows.
# Fresh blood was collected from normal human donors underwritten informed consent in heparinized syringes on the morning of the assay. The blood was diluted in RPMI-1640 medium and the white blood cells were separated from red blood cells by centrifugation (800 g 15′ 0 acceleration, 0 brake) on a Ficoll cushion. Peripheral blood mononuclear cells (PBMCs) were separated from platelets by a series of low-speed centrifugations (1000RPM 10′) in PBS+5% HI—FBS and 1 mM EDTA. Purified PBMCs were re-suspended in assay medium (RPMI-1640 w Glutamax (Invitrogen) supplemented with 5% HI—FBS, 10 mM HEPES, 50 uM β-mercaptoethanol, and 100 mG/L penicillin/streptomycin cocktail). Viable PBMCs were counted on a hemacytometer and kept on ice until ready for plating.
# A 4× concentration (4 ug/ml or 40 ug/ml for TLR8 or TLR7 assays, respectively) of the TLR7/8 agonist ssRNA40 (IDT) was complexed with 10% DOTAP (Roche) in assay medium for 30 min prior to addition to the PBMC suspension (5 million cells/ml). After addition, the final concentration of ssRNA40 in the TLR7/8 stimulated PBMC suspension was 1 μg/ml for TLR8 assay, and 10 μg/mL for the TLR7 assay. The final DOTAP concentration was 2.5%. Diluted PBMCs (5 million cells/ml) were treated with 4×TLR9 agonist ODN2216 (Invivogen). Final concentration of ODN2216 in TLR9 stimulated PBMC suspension was 0.3 μM.
# Agonist stimulated PBMCs were plated on the compound treated 384 well plates at 150,000 cells/well. Un-stimulated PBMCs were plated as controls on each plate. Plating volume was 40 μL per well. DMSO concentration in each well was 0.25%.
# A separate plate, without compounds, with titrations of ssRNA40 and ODN2216 was included in every assay to measure agonist response of each donor's PBMC prep. Assay plates were placed in a tissue culture incubator (37° C., 5% CO2) for 14-16 hrs. After this incubation, the plates were centrifuged and stored at −20° C. until they were assayed.
# IL-6 TR-FRET Assay for TLR8 activity: • 1) Cisbio Human IL-6 kit, 20,000 tests (62TNFPEC), and GNF High-Base TC 384 well plates (cat #789163G) were used; • 2) the Anti-TIL-6 Cryptate conjugate and the Anti-IL-6 XL665 conjugate were diluted 1:20 in Reconstitution Buffer; • 3) a 1:1 mixture of 3 μl/well Anti-IL-6 Cryptate conjugate and 3 μl/well Anti-IL-6 XL665 conjugate was prepared; • 4) 6 μl/well HTRF dilution mastermix was added to 6 μl of transferred supernatant samples in proxiplates; • 5) The plates were incubated for 3 hrs at rt in the dark; and • 6) the levels of IL-6 production was measured using an Envision plate reader (665 nm (emmission)/590 nm (excitation)) with HTRF settings and ratiometric read-out: (XL665 emission/Eu Cryptate emission)×10,000. IFNα2b AlphaLISA Assay for TLR7 or TLR9 activity After thawing the assay plates, 6 μL of supernatant samples were transferred to a low-volume AlphaPlate 384SW (Perkin-Elmer). The concentration of IFNα in supernatants was measured using the IFNα2b AlphaLISA Assay (Perkin-Elmer: AL297F). 3 μL of IFNα acceptor beads/biotinylated antibody solution was added first, using laboratory automation. After an hour incubation, […] of streptavidin […] bead solution was added. The plates containing this mixture were incubated in the dark for an hour and read on an appropriate plate reader at reading parameters set by the manufacturer. (Envision, EnSpire: Perkin-Elmer).
row,Structure (SMILES),IC50 [µM]
1,"Cc1nc(N2CCc3c(c(C)nn3CC34CCC(N5CCCC5)(CC3)CC4)C2)c2cnn(C)c2n1 [compound 16, 1,6-dimethyl-4-(3-methyl-1-((4-(pyrrolidin-1-yl)bicyclo[2.2.2]octan-1-yl)methyl)-6,7-dihydro-1H-pyrazolo[4,3-c]pyridin-5(4H)-yl)-1H-pyrazolo[3,4-d]pyrimidine]",> 10
2,"Cc1nc(N2CCc3c(c(C)nn3CC34CCC(N5CCCC5)(CC3)CC4)C2)c2c(n1)c(C)nn2C [compound 17, 1,3,5-trimethyl-7-(3-methyl-1-((4-(pyrrolidin-1-yl)bicyclo[2.2.2]octan-1-yl)methyl)-6,7-dihydro-1H-pyrazolo[4,3-c]pyridin-5(4H)-yl)-1H-pyrazolo[4,3-d]pyrimidine]",> 10
3,"COCCNC12CCC(Cn3nc(C)c4c3CCN(c3nc(C)nc5c(C)nn(C)c35)C4)(CC1)CC2 [compound 18, N-(2-methoxyethyl)-4-((3-methyl-5-(1,3,5-trimethyl-1H-pyrazolo[4,3-d]pyrimidin-7-yl)-4,5,6,7-tetrahydro-1H-pyrazolo[4,3-c]pyridin-1-yl)methyl)bicyclo[2.2.2]octan-1-amine]",> 10
4,"Cc1nc(N2CCc3c(c(C)nn3CC34CCC(N5CCOCC5)(CC3)CC4)C2)c2cnn(C)c2n1 [compound 19, 4-(4-((5-(1,6-dimethyl-1H-pyrazolo[3,4-d]pyrimidin-4-yl)-3-methyl-4,5,6,7-tetrahydro-1H-pyrazolo[4,3-c]pyridin-1-yl)methyl)bicyclo[2.2.2]octan-1-yl)morpholine]",> 10
5,"CCNCC(=O)NC12CCC(Cn3nc(C)c4c3CCN(c3nc(C)nc5[nH]ncc35)C4)(CC1)CC2 [compound 20, 2-(ethylamino)-N-(4-((3-methyl-5-(6-methyl-1H-pyrazolo[3,4-d]pyrimidin-4-yl)-4,5,6,7-tetrahydro-1H-pyrazolo[4,3-c]pyridin-1-yl)methyl)bicyclo[2.2.2]octan-1-yl)acetamide]",> 9.38
6,"Cc1nc(N2CCc3c(c(C)nn3CC34CCC(N5CCOCC5)(CC3)CC4)C2)c2cn[nH]c2n1 [compound 21, 4-(4-((3-methyl-5-(6-methyl-1H-pyrazolo[3,4-d]pyrimidin-4-yl)-4,5,6,7-tetrahydro-1H-pyrazolo[4,3-c]pyridin-1-yl)methyl)bicyclo[2.2.2]octan-1-yl)morpholine]",> 10
7,"CCNCC(=O)NC12CCC(Cn3nc(C)c4c3CCN(c3nc(C)nc5c(C)nn(C)c35)C4)(CC1)CC2 [compound 22, 2-(ethylamino)-N-(4-((3-methyl-5-(1,3,5-trimethyl-1H-pyrazolo[4,3-c]pyrimidin-7-yl)-4,5,6,7-tetrahydro-1H-pyrazolo[4,3-c]pyridin-1-yl)methyl)bicyclo[2.2.2]octan-1-yl)acetamide]",> 10
8,"Cc1nc(N2CCc3c(c(C)nn3CC34CCC(NCC5COC5)(CC3)CC4)C2)c2c(n1)c(C)nn2C [compound 23, 4-((3-methyl-5-(1,3,5-trimethyl-1H-pyrazolo[4,3-c]pyrimidin-7-yl)-4,5,6,7-tetrahydro-1H-pyrazolo[4,3-c]pyridin-1-yl)methyl)-N-(oxetan-3-ylmethyl)bicyclo[2.2.2]octan-1-amine]",> 10
9,"Cc1nc(N2CCc3c(c(C)nn3CC34CCC(NC5CCC5)(CC3)CC4)C2)c2c(n1)c(C)nn2C [compound 27, N-cyclobutyl-4-((3-methyl-5-(1,3,5-trimethyl-1H-pyrazolo[4,3-d]pyrimidin-7-yl)-4,5,6,7-tetrahydro-1H-pyrazolo[4,3-c]pyridin-1-yl)methyl)bicyclo[2.2.2]octan-1-amine]",> 10

# The remaining lines, values ahead:
row,IC50 [µM],Structure (SMILES)
1,> 6.58,"Cn1ncc2c(N3CCc4c(cnn4CC45CCC(N)(CC4)CC5)C3)nc(N)nc21 [compound 11, 4-(1-((4-aminobicyclo[2.2.2]octan-1-yl)methyl)-6,7-dihydro-1H-pyrazolo[4,3-c]pyridin-5(4H)-yl)-1-methyl-1H-pyrazolo[3,4-d]pyrimidin-6-amine]"
2,> 4.96,"Cn1ncc2c(N3CCc4nn(CC56CCC(N)(CC5)CC6)cc4C3)nc(N)nc21 [compound 12, 4-(2-((4-aminobicyclo[2.2.2]octan-1-yl)methyl)-6,7-dihydro-2H-pyrazolo[4,3-c]pyridin-5(4H)-yl)-1-methyl-1H-pyrazolo[3,4-d]pyrimidin-6-amine]"
3,7.75,"Cc1nn(CC23CCC(N)(CC2)CC3)c2c1CN(c1nc(N)nc3c1cnn3C)CC2 [compound 13, 4-(1-((4-aminobicyclo[2.2.2]octan-1-yl)methyl)-3-methyl-6,7-dihydro-1H-pyrazolo[4,3-c]pyridin-5(4H)-yl)-1-methyl-1H-pyrazolo[3,4-d]pyrimidin-6-amine]"
4,> 9.09,"Cc1c2c(nn1CC13CCC(N)(CC1)CC3)CCN(c1nc(N)nc3c1cnn3C)C2 [compound 14, 4-(2-((4-aminobicyclo[2.2.2]octan-1-yl)methyl)-3-methyl-6,7-dihydro-2H-pyrazolo[4,3-c]pyridin-5(4H)-yl)-1-methyl-1H-pyrazolo[3,4-d]pyrimidin-6-amine]"
5,1.27,"Cc1nn(CC23CCC(N)(CC2)CC3)c2c1CN(c1nc(Cl)nc3cnn(C)c13)CC2 [compound 15, 4-((5-(5-chloro-1-methyl-1H-pyrazolo[4,3-d]pyrimidin-7-yl)-3-mehtyl-4,5,6,7-tetrahydro-1H-pyrazolo[4,3-c]pyridin-1-yl)methyl)bicyclo[2.2.2]octan-1-amine]"
6,> 7.38,"Cc1nc(N2CCc3c(c(C)nn3CC34CCC(NC(=O)CCN(C)C)(CC3)CC4)C2)c2c(n1)c(C)nn2C [compound 24, 3-(dimethyalmino)-N-(4-((3-methyl-5-(1,3,5-trimethyl-1H-pyrazolo[4,3-d]pyrimidin-7-yl)-4,5,6,7-tetrahydro-1H-pyrazolo[4,3-c]pyridin-1-yl)methyl)bicyclo[2.2.2]octan-1-yl)propanamide]"
7,> 8.08,"Cc1nc(N2CCc3c(c(C)nn3CC34CCC(N5CCOCC5)(CC3)CC4)C2)c2c(n1)c(C)nn2C [compound 25, 4-(4-((3-methyl-5-(1,3,5-trimethyl-1H-pyrazolo[4,3-d]pyrimidin-7-yl)-4,5,6,7-tetrahydro-1H-pyrazolo[4,3-c]pyridin-1-yl)methyl)bicyclo[2.2.2]octan-1-yl)morpholine]"

# — US20240376099A1, “COMPOUNDS AND COMPOSITIONS AS INHIBITORS OF ENDOSOMAL TOLL-LIKE RECEPTORS” (Novartis AG, priority 2016, published 2024)
